Consider three compounds from US20240390335A1, “PHARMACEUTICAL COMPOSITION CONTAINING BETA-LACTAM COMPOUND AND USE THEREOF” (priority 2021, published 2024).

Assay type in all cases: cell-based
Test [1] concerns Klebsiella pneumoniae. Description: MIC assay of individual compounds (microdilution, CLSI/NCCLS). The procedure:
(§1) Mueller-Hinton broth (MH broth) medium, Trypticase Soy Broth (TSB Broth) medium, purchased from BD Difco, Cockeysville, MD, USA; • 96-well plate: Corning Costar, Cambridge, MA, USA; • Test method: the antibacterial activities were tested by the microdilution method according to the CLSI/NCCLS standard.
(§2) (1) Preparation of the test samples: 4 mg of each sample was taken, and was prepared into a test solution at 1,024 μg/mL with MH broth, and the test solution was diluted two-fold in a 96-well plate to prepare solutions of a series of gradient concentrations, the volume in each well being 90 μL.
(§3) (2) Preparation of a bacteria solution: The test strains were amplified by Trypticase Soy Broth (TSB Broth) according to the CLSI/NCCLS standard.
(§4) (3) Addition of the samples: a bacteria solution with a concentration of 6×10^5 cfu/mL was prepared, and 10 μL of the bacteria solution was pipetted into each well of the 96-well plate. Three parallel experiments were set up for each concentration and the results were averaged. To the negative control group, 10 μL of the bacterial solution and 90 μL MH broth were added.
(§5) (4) Incubation: the 96-well plate was placed in a 37° C. constant-temperature incubator for 18 hours, and the growth of the strains was observed. The drug concentration in the well with no microbial growth was recorded as the MIC.
For orientation: Broth dilution looks for growth in wells or tubes with falling amounts of substance.

In a further test the test system is Enterobacter cloacae. Described as above. The procedure: as §1, §2, §3, §4, §5
Test [2] concerns Escherichia coli. Described as above. The procedure:
as §1, §2, §3, §4, §5

For test [3], the system named is drug-resistant Enterobacteriaceae strains. The test is described as follows: Checkerboard combination, summary over Enterobacteriaceae strains. Conditions: combined with avibactam; all of the 4 drug-resistant Enterobacteriaceae strains tested. The procedure:
(§6) Mueller-Hinton broth (MH broth) medium, Trypticase Soy Broth (TSB Broth) medium, purchased from BD Difco, Cockeysville, MD, USA; • 96-well plate: Corning Costar, Cambridge, MA, USA; • Test method: the checkerboard dilution method was used for determination.
(§7) (1) Preparation of the test samples: 4 mg of each sample was taken and was prepared into a test solution at 2,048 μg/mL with MH broth, and the test solution was diluted two-fold in a 96-well plate to prepare solutions of a series of gradient concentrations.
as §3
(3) Addition of the samples: 10 μL of the bacteria solution with a concentration of 6×10^5 CFU/mL was pipetted into each well of the 96-well plate. Each well contained the antibacterial drugs (the compound of formula (I-1) and the compound of formula (I-2)) diluted two-fold with broth and the aforementioned lactamase inhibitor or efflux pump inhibitor. […] The samples were mixed thoroughly. Three parallel experiments were set up for each concentration and the results were averaged. […]
(5) Calculation: The in vitro effect of each drug-inhibitor combination was analyzed by calculating the FICI value: FICI=(MIC of drug A in the combination/MIC of drug A alone)+ (MIC of drug B in the combination/MIC of drug B alone). […]

In test [4] the test system is Klebsiella pneumoniae. The test is described as follows: Combined in vitro use, checkerboard dilution method. The procedure: as §6, §7, §3
(§8) (3) Addition of the samples: 10 μL of the bacteria solution with a concentration of 6×10^5 CFU/mL was pipetted into each well of the 96-well plate. Each well contained the antibacterial drugs (the compound of formula (I-1) and the compound of formula (I-2)) diluted two-fold with broth and the aforementioned lactamase inhibitor or efflux pump inhibitor. […] The samples were mixed thoroughly. Three parallel experiments were set up for each concentration and the results were averaged. To the negative control group, 10 μL of the bacterial solution and 90 μL MH broth were added.
(§9) (4) Incubation: the 96-well plate was placed in a 37° C. constant-temperature incubator for 18 hours, and the growth of the strains was observed.
(§10) (5) Calculation: The in vitro effect of each drug-inhibitor combination was analyzed by calculating the FICI value: FICI=(MIC of drug A in the combination/MIC of drug A alone)+ (MIC of drug B in the combination/MIC of drug B alone).
(§11) In order to ensure the reliability of the data, three repeated tests were conducted on different dates and the results were averaged.

Test [5] has as its system Acinetobacter baumannii. The test is described as follows: MIC assay of individual compounds (microdilution, CLSI/NCCLS). Conditions: individual compound, read-out: MIC. The procedure:
as §1, §2, §3, §4, §5

In another test the test system is Pseudomonas aeruginosa. The test is described as above. Conditions: individual compound, read-out: MIC. On the procedure: as §1, §2, §3, §4, §5
The subject of test [6] is Acinetobacter baumannii or Pseudomonas aeruginosa. Description: MIC assay of individual compounds, summary over non-fermenter strains. Conditions: various Acinetobacter baumannii or Pseudomonas aeruginosa strains. The procedure: as §1, §2, §3, §4, §5
The test system of test [7] is Acinetobacter baumannii. Description: Combined in vitro use, checkerboard dilution method. Conditions: compound of formula (I-1) combined with berberine. On the procedure:
as §6, §7, §3, §8, §9, §10, §11

In test [8] the test system is drug-resistant Enterobacteriaceae. Description: MIC assay of individual compounds, summary over Enterobacteriaceae strains. Conditions: against the aforementioned Enterobacteriaceae. The procedure:
as §1, §2, §3, §4, §5

The test system of test [9] is Escherichia coli. The test is described as follows: Combined in vitro use, checkerboard dilution method. Conditions: compound of formula (I-1) combined with vaborbactam; Escherichia coli CCPM(A)-P-071301. The procedure:
as §6, §7, §3, §8, §9, §10, §11

The mark [10] stands for this setting: Acinetobacter baumannii CCPM(A)-P-101633(CRAB).

Like-named read-outs stand apart in the source and are kept apart here.

`CC1(C)[C@H](NC(=O)/C(=N\OC2(C(=O)O)CCC2)c2csc(N)n2)C(=O)N1OS(=O)(=O)O` [Compound of formula (I-2)]: the MIC in the test on Klebsiella pneumoniae [1] (Klebsiella pneumoniae, ATCC2146, individual compound, Klebsiella pneumoniae ATCC 2146, read-out: MIC) is 2 mg/L; in the test with Klebsiella pneumoniae [1] (Klebsiella pneumoniae, ATCC700603, individual compound, Klebsiella pneumoniae ATCC 700603, read-out: MIC), 2 mg/L; in the test with Klebsiella pneumoniae [1] (Klebsiella pneumoniae, individual compound, Klebsiella pneumoniae CCPM(A)-0814R18, read-out: MIC) it was 2 mg/L; in the test on Klebsiella pneumoniae [1] (Klebsiella pneumoniae, individual compound, Klebsiella pneumoniae CCPM(A)-0814R33, read-out: MIC) it was 2 mg/L; in the test on Klebsiella pneumoniae [1] (Klebsiella pneumoniae, individual compound, Klebsiella pneumoniae CCPM(A)-0817R61, read-out: MIC), 32 mg/L; with Klebsiella pneumoniae [1] (Klebsiella pneumoniae, individual compound, Klebsiella pneumoniae CCPM(A)-081301, read-out: MIC) it was 2 mg/L. In addition, the MIC with Klebsiella pneumoniae [1] (Klebsiella pneumoniae, individual compound, Klebsiella pneumoniae CCPM(A)-081705, read-out: MIC) was determined as 2 mg/L; in the test with Klebsiella pneumoniae [1] (Klebsiella pneumoniae, individual compound, Klebsiella pneumoniae CCPM(A)-081715, read-out: MIC), 1 mg/L; in the test with Klebsiella pneumoniae [1] (Klebsiella pneumoniae, individual compound, Klebsiella pneumoniae CCPM(A)-081716, read-out: MIC), 32 mg/L; in the test on Klebsiella pneumoniae [1] (Klebsiella pneumoniae, individual compound, Klebsiella pneumoniae CCPM(A)-081729, read-out: MIC) it was 1 mg/L; in the test with Enterobacter cloacae (ATCC2468, individual compound, Enterobacter cloacae ATCC 2468, read-out: MIC), 2 mg/L; in the test with Escherichia coli [2] (ATCC2469, individual compound, Escherichia coli ATCC 2469, read-out: MIC) it was 1 mg/L. The MIC in the test with Escherichia coli [2] (individual compound, Escherichia coli CCPM(A)-P-071301, read-out: MIC) was determined as 1 mg/L. In addition, the “change of MIC values on combination” value in test [3] is recorded as “significantly reduced”. Also, the MIC in combination in the test with Klebsiella pneumoniae [4] (compound of formula (I-2) combined with avibactam, Klebsiella pneumoniae ATCC 2146) was 0.5 mg/L; with Klebsiella pneumoniae [4] (compound of formula (I-2) combined with avibactam, Klebsiella pneumoniae ATCC 700603) it was 0.5 mg/L; in the test with Klebsiella pneumoniae [4] (compound of formula (I-2) combined with avibactam, Klebsiella pneumoniae CCPM(A)-081715), 0.5 mg/L; in the test with Klebsiella pneumoniae [4] (compound of formula (I-2) combined with avibactam, Klebsiella pneumoniae CCPM(A)-081729), 0.5 mg/L.

Regarding `COc1ccc2cc3[n+](cc2c1OC)CCc1cc2c(cc1-3)OCO2` [Berberine, berberine], the MIC in the test on Acinetobacter baumannii [5] (ATCC17978, Acinetobacter baumannii ATCC 17978) was more than 1020 mg/L; in the test on Acinetobacter baumannii [5] (ATCC19606, Acinetobacter baumannii ATCC 19606), more than 1020 mg/L; in the test on Acinetobacter baumannii [5] (setting [10]), more than 1020 mg/L; with Pseudomonas aeruginosa (Pseudomonas aeruginosa ATCC27853), more than 1020 mg/L; in the test on Pseudomonas aeruginosa (Pseudomonas aeruginosa CCPM(A)-P-091626(CRPA)), more than 1020 mg/L; in the test on Pseudomonas aeruginosa (Pseudomonas aeruginosa PAO1(CCPM(A)-P-09000032)), more than 1020 mg/L. The “activity of the inhibitor itself” value in [6] is “relatively weak activities”. The MIC in combination in the test with Acinetobacter baumannii [7] (Acinetobacter baumannii ATCC 19606) was 32 mg/L; with Acinetobacter baumannii [7] (setting [10]), more than 0.5 mg/L.

On to `O=C(O)C[C@@H]1CC[C@H](NC(=O)Cc2cccs2)B(O)O1` [Vaborbactam, vaborbactam], for which the MIC against Klebsiella pneumoniae [1] (Klebsiella pneumoniae) is more than 128 mg/L; in the test on Klebsiella pneumoniae [1] (Klebsiella pneumoniae, ATCC2146), more than 128 mg/L; in the test on Klebsiella pneumoniae [1] (Klebsiella pneumoniae, ATCC700603), more than 128 mg/L; in the test with Klebsiella pneumoniae [1] (individual compound, Klebsiella pneumoniae CCPM(A)-0814R33), more than 128 mg/L; in the test with Klebsiella pneumoniae [1] (individual compound, Klebsiella pneumoniae CCPM(A)-081301), more than 128 mg/L; in the test with Klebsiella pneumoniae [1] (individual compound, Klebsiella pneumoniae CCPM(A)-081715) it was more than 128 mg/L. Moreover, the MIC against Klebsiella pneumoniae [1] (individual compound, Klebsiella pneumoniae CCPM(A)-081716) is more than 128 mg/L; with Enterobacter cloacae (Enterobacter cloacae) it was more than 128 mg/L; in the test with Enterobacter cloacae (Enterobacter cloacae, ATCC2468) it was more than 128 mg/L; with Escherichia coli [2] (Escherichia coli), more than 128 mg/L; in the test on Escherichia coli [2] (Escherichia coli, ATCC2469) it was more than 128 mg/L. Further, the “activity of the inhibitor itself” value in test [8] is “relatively weak activities”. In addition, the MIC in combination with Klebsiella pneumoniae [4] (compound of formula (I-1) combined with vaborbactam, Klebsiella pneumoniae ATCC 700603) stood at 8 mg/L; with Klebsiella pneumoniae [4] (compound of formula (I-1) combined with vaborbactam, Klebsiella pneumoniae CCPM(A)-0814R33), 2 mg/L; with Escherichia coli [9], 0.5 mg/L.

The MIC is the lowest concentration that inhibits growth of the organism.
